≈ marks a conversion by molar mass, not a printed value. Read-outs that look alike come from different tables or passages of the source. Non-standard residues stand in square brackets, D forms with d. Residues, ends and D or L forms follow the SMILES beside them. Dab(3S-OH) = NC[C@H](O)[C@H](N)C(=O)O; Phe(2-F) = N[C@@H](Cc1ccccc1F)C(=O)O; ΔZArg = N=C(N)NCC/C=C(\N)C(=O)O; dOrn = NCCC[C@@H](N)C(=O)O; Dab = NCC[C@H](N)C(=O)O
Key:
[1] = test system: human renal proximal tubular epithelial cells (HRPTEpiC); experiment: Multiplexed HRPTEpiC cytotoxicity assay (cell viability, KIM-1, HSP27)
Experimental: The multiplexed cytotoxicity assay on human renal proximal tubule epithelial cells (HRPTEpiC) was conducted by Eurofins Panlabs (Eurofins Panlabs, Inc., St. Charles, MO) by using an image-based high content analysis (HCA) technique where cells were fixed and stained with nuclear dye to visualize nuclei and fluorescently labeled antibodies to detect drug-induced cellular injury and cellular stress arising from oxidative and chemical stress. Cells were seeded into 384-well plates and grown in RPMI 1640, 10% fetal bovine serum (FBS), 2 mM L-alanyl-L-glutamine, and 1 mM sodium pyruvate in a humidified atmosphere of 5% CO2 at 37°C. […] Compounds were serially diluted 3.16-fold and assayed over 10 concentrations in a final assay concentration of 0.5% dimethyl sulfoxide (DMSO) from 100 μM to 3.7 nM. At the same time, a time zero untreated cell plate was generated. After a 48-h incubation period, cells were fixed and stained with fluorescently labeled antibodies and nuclear dyed to allow visualization of nuclei, injured cells, and stressed cells. Injured cells were detected using a KIM-1 (kidney injury molecule 1) antibody. Stressed cells were detected using an anti-HSP27 (heat shock protein 27) antibody. Cell proliferation was measured by the signal intensity of the incorporated nuclear dye. The cell proliferation assay output was referred to as the relative cell count. To determine the cell proliferation endpoint, the cell proliferation data output was transformed to percentage of control (POC) using the following formula: POC = relative cell count in compound wells/relative cell count in vehicle wells × 100. The signal intensity of the incorporated cellular stress and injury measurements were normalized with the relative cell count from each well. Automated fluorescence microscopy was carried out using a Molecular Devices ImageXpress micro-imager, and images were collected with a 4× objective.

Escherichia coli GAL = conditions: Ambler class B carbapenemase; NDM-6 + OXA-1 + CTX-M15
From the text: (§1) Reference strains are from the German Collection of Microorganisms and Cell Cultures (DSMZ), the American Type Culture Collection (ATCC), the National Collection of Type Cultures (NCTC), and the Medical and Molecular Microbiology, Faculty of Science and Medicine, University of Fribourg, Switzerland.

[2] = test system: Klebsiella pneumoniae LAM; conditions: Ambler class B carbapenemase; NDM-4 + SHV-11 + CTX-M15
From the text: as §1

Enterobacter cloacae YAM = conditions: Ambler class D carbapenemase; OXA-48 + CTX-M15 + TEM-1 + OXA-1 + DHA-1
From the text: as §1

[3] = test system: Enterobacter cloacae KBM15; conditions: Ambler class A carbapenemase; KPC-2 + TEM-1 + OXA-9
From the text: as §1

Escherichia coli MON = conditions: Ambler class B carbapenemase; NDM-5 + CTX-M15 + TEM-1
From the text: as §1

[4] = test system: Klebsiella pneumoniae ATCC BAA-2146; conditions: Ambler class B carbapenemase; NDM-1 + CTX-M15 + TEM-1 + CMY-6 + OXA-1 + SHV-1
From the text: as §1

[5] = test system: Enterobacter cloacae 3047; conditions: Ambler class B carbapenemase; NDM-1 + CTX-M15 + TEM-1 + OXA-1
From the text: as §1

Escherichia coli EGB957 = conditions: Ambler class B carbapenemase; VIM-1 + OXA-48 + TEM-1 + CMY-4 + OXA-1
From the text: as §1

Escherichia coli DOV = conditions: Ambler class D carbapenemase; OXA-48 + TEM-1 + CTX-M15 + OXA-1
From the text: as §1

Escherichia coli PSP = conditions: Ambler class A carbapenemase; KPC-2 + TEM-1 + OXA-1
From the text: as §1

E. coli EN122 = conditions: ESBL, clinical isolate
Experimental: MIC values were determined using Clinical and Laboratory Standards Institute (CLSI) broth microdilution methodology, colony direct suspension, as described in CLSI document M07-A10 ([42]).

hERG = hERG (Homo sapiens, UniProt Q12809); experiment: in vitro
Experimental: Inhibition of the human ether-a-go-go-related gene (hERG) cardiac potassium ion channel was determined by Eurofins Panlabs (Eurofins Panlabs, Inc., St. Charles, MO) in CHO-K1 (Chinese hamster ovary) cells stably transfected with human hERG cDNA using QPatch automated whole-cell patch clamp electrophysiology as described in reference [45]. […] In this method, the extracellular solution (control) is applied first and the cell is stabilized in the solution for 5 min. Then the test compound is applied from low to high concentrations sequentially on the same cell, with 5 min for each test concentration, at room temperature.

in vitro = conditions: liver microsomes, pH 7.4
Experimental: The microsome metabolic stability assays were performed by Cyprotex Discovery Ltd. (Macclesfield, UK). Pooled microsomes from different species (mouse, rat, dog, monkey, and human) were stored at −80°C prior to use. […] The final incubation volume was 500 μl. A minus cofactor control incubation was included for each compound tested, in which 0.1 M phosphate buffer (pH 7.4) was added instead of NADPH (minus NADPH). Two control compounds were included with each species. Each compound was incubated for 0, 5, 15, 30, and 45 min. The control (minus NADPH) was incubated for 45 min only. The reactions were stopped by transferring an aliquot of the mixture to 40% TCA in water containing an internal standard (NOSO-95216, 1 μM final concentration) for the test compounds, or methanol for the control compounds, at the desired time points. The termination plates were centrifuged at 2,500 rpm for 20 min at 4°C to precipitate the protein. Following protein precipitation, the test compound sample supernatants were diluted with analytical-grade water, whereas the control compounds were diluted with an internal standard (metoprolol) in water. The test compound samples were analyzed by LC-MS/MS.

[6] = test system: Gentamicin-resistant E. coli (6); conditions: 6 gentamicin-resistant isolates
From the text: as §1

[7] = test system: Escherichia coli, colistin-resistant (25)
From the text: as §1

[8] = test system: Klebsiella pneumoniae, colistin resistant (46)
From the text: as §1

Sequence of hERG (Q12809 whole entry): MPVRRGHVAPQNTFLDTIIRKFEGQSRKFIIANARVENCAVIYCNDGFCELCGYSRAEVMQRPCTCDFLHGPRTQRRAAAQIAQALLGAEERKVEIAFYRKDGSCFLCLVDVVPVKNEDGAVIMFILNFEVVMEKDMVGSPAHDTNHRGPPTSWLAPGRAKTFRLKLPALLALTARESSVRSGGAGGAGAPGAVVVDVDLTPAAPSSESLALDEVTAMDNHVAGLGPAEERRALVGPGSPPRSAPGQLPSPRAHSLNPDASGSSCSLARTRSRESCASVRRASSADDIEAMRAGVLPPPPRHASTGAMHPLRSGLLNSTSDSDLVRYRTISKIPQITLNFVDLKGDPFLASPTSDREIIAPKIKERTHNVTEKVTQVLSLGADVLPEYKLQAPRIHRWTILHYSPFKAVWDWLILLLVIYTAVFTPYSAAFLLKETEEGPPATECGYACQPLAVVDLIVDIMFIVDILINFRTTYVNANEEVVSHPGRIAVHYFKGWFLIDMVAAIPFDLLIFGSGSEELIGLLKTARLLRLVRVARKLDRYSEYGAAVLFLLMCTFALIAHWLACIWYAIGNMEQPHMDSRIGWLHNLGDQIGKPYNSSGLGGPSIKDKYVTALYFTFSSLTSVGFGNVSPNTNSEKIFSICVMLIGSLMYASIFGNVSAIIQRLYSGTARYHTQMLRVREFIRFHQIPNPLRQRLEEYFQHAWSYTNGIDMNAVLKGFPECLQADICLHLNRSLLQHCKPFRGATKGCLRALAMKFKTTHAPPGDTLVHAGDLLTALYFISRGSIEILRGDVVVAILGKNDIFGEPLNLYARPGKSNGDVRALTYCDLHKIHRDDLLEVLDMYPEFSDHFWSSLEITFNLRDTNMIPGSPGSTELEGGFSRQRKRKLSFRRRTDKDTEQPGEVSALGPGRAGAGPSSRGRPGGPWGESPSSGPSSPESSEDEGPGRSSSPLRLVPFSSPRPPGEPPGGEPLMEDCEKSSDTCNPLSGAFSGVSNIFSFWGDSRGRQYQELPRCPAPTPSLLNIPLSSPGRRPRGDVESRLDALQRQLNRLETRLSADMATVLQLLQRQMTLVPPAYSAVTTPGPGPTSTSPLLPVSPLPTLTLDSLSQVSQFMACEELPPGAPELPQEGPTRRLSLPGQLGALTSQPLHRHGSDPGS

Compound: polymyxin B [PMB]
- IC50 ([1]; read-out: cytotoxicity IC50 (cell viability), 48-h incubation): 11.8 µM
- concentration inducing a significant (5-fold) increase of HSP27 level ([1]; tested up to 100 μM): 9.7 µM
- concentration inducing a significant (5-fold) increase of KIM-1 level ([1]; tested up to 100 μM): 12.1 µM
- MIC (Escherichia coli GAL): 0.25 µg/mL
- MIC [2]: 0.5 µg/mL
- MIC (Enterobacter cloacae YAM): 1 µg/mL
- MIC [3]: 0.5 µg/mL
- MIC (Escherichia coli MON): 0.5 µg/mL
- MIC [4]: 1 µg/mL
- MIC [5]: 0.5 µg/mL
- MIC (Escherichia coli EGB957): 0.5 µg/mL
- MIC (Escherichia coli DOV): 0.5 µg/mL
- MIC (Escherichia coli PSP): 0.5 µg/mL

Compound: N=C(N)NCC/C=C(\NC(=O)[C@H](CCCCN)NC(=O)[C@H](Cc1ccccc1F)NC(=O)[C@@H]1CCCN1C(=O)[C@@H](CCCN)NC(=O)CNC(=O)[C@H](CCN)NC(=O)[C@@H](NC(=O)[C@@H](N)CCCCN)[C@@H](O)CN)C(=O)O [NOSO-502] (H-K[Dab(3S-OH)][Dab]G[dOrn]P[Phe(2-F)]K[ΔZArg]-OH)
- MIC (E. coli EN122): 4 µg/mL (≈ 3.71 µM)
- inhibition at 5 min, 256 µM (hERG): 2.6%
- inhibition at 5 min, 512 µM (hERG): 1.9%
- half-life at 1 μM (in vitro; dog): 1.68 h
- half-life at 1 μM (in vitro; human): 2.42 h
- half-life at 1 μM (in vitro; monkey): 2.45 h
- half-life at 1 μM (in vitro; mouse): 1.93 h
- half-life at 1 μM (in vitro; rat): 2.15 h
- concentration inducing a significant (5-fold) increase of KIM-1 level ([1]; tested up to 100 μM): > 100 µM
- MIC range [6]: 4 µg/mL (≈ 3.71 µM)
- MIC range ([7]; Unknown mechanism (2 isolates)): 1 to 2 µg/mL
- MIC range ([7]; mcr-1 (21 isolates)): 1 to 4 µg/mL
- MIC range ([7]; mcr-2 (1 isolate)): 1 µg/mL (≈ 0.927 µM)
- MIC range ([7]; mcr-3 (1 isolate)): 1 µg/mL (≈ 0.927 µM)
- MIC range ([8]; Unknown mechanism (1)): 0.5 µg/mL (≈ 0.464 µM)
- MIC range ([8]; crrB F84S substitution (1)): 8 µg/mL (≈ 7.42 µM)
- MIC range ([8]; crrB G183V substitution (1)): 64 µg/mL (≈ 59.4 µM)
- MIC range ([8]; crrB N141Y substitution (1)): 16 µg/mL (≈ 14.8 µM)
- MIC range ([8]; crrB P151L substitution (1)): 128 µg/mL (≈ 119 µM)
- MIC range ([8]; mcr-1 (1)): 0.5 µg/mL (≈ 0.464 µM)
- MIC range ([8]; mgrB IS1R between +44 and +45 (2)): 1 µg/mL (≈ 0.927 µM)
- MIC range ([8]; mgrB IS1R into promoter between −45 and −46 (3)): 0.5 to 1 µg/mL
- MIC range ([8]; mgrB IS5 between +74 and +75 (4)): 0.5 to 2 µg/mL
- MIC range ([8]; mgrB IS903B between +69 and +70 (2)): 0.25 to 1 µg/mL
- MIC range ([8]; mgrB ISKpn14 into promoter between −28 and −29 (2)): 0.5 to 2 µg/mL
- MIC range ([8]; mgrB ISKpn26-like between +74 and +75 (2)): 1 µg/mL (≈ 0.927 µM)
- MIC range ([8]; mgrB M27K substitution (1)): 2 µg/mL (≈ 1.85 µM)
- MIC range ([8]; mgrB N42Y and K43I substitutions (1)): 2 µg/mL (≈ 1.85 µM)
- MIC range ([8]; mgrB W20R substitution (1)): 0.5 µg/mL (≈ 0.464 µM)
- MIC range ([8]; mgrB W47R substitution (1)): 1 µg/mL (≈ 0.927 µM)
- MIC range ([8]; mgrB full deletion (5)): 0.5 to 1 µg/mL
- MIC range ([8]; mgrB premature termination (6)): 0.5 to 1 µg/mL
- MIC range ([8]; phoQ R16C substitution (1)): 2 µg/mL (≈ 1.85 µM)
- MIC range ([8]; pmrA G53S substitution (2)): 1 to 2 µg/mL
- MIC range ([8]; pmrB L17Q substitution (1)): 1 µg/mL (≈ 0.927 µM)
- MIC range ([8]; pmrB T157P substitution (6)): 0.25 to 16 µg/mL
